pEC50, pIC50: −log10 of the molar value. Where two headings read alike, the source gives them in different places.
Key:
[1] = system: MCF-7 breast cancer cells; experiment: MCF-7 cell growth inhibition; format: cell-based; conditions: Homo sapiens, MCF7, 120 h; 5 days treatment, cell count vs DMSO
Experimental: At the end of treatment, surviving cells were counted and normalized to control cells that were treated with vehicle (DMSO) only. (B) IC50 values were obtained by deriving logarithmic curves from the %cell survival vs. treatment dose plot.

[2] = set-up: method as in PMID 27529700; conditions: after ZB716 dosing; cited from earlier work
[3] = Drug concentrations in final plasma and tumor tissue of MCF-7 xenograft mice; format: in vivo; conditions: female, Nu/Nu, mouse
Experimental: The plasma samples of 100 μL each were processed for analysis by a TSQ UPLC-MS/MS system. Aliquots of 10 μL of 0.5 ng/μl E-Tamoxifen-2C^13, N^15, 200 μL methanol, and 400 μl chloroform were added to the plasma in a 1.5 mL centrifuge tube in sequence. The sample was vortexed and stored at −20°C for 4 hours, followed by sonication in a Branson B3510MT Ultrasonic Cleaners for 30 min and centrifuged at 12000 RPM on a Heraeus Fresco 21 Refrigerated Micro Centrifuge from Thermo Fisher Scientific for 10 min. The supernatant was dried with a nitrogen gas flow and suspended in 100 μL methanol. Aliquots of 10 μL of the above processed samples were injected into a TSQ Vantage mass spectrometer connected with a heated electrospray ionization probe and a Dionex Ultimat 3000 UHPLC with a Hypersil gold column (50×2.1 mm). The probe setting and front mass spectrometer setting were controlled as follows: spray voltage 3200 voltage, auxiliary gas 10psi, vaporizer temperature 365°C, capillary temperature 300°C, sheath gas 30psi, S-lens RF amplitude 51 voltage. The flow gradient was started with initial 30% mobile phase A of water with 0.05% formic acid to 1 min, to 100% mobile phase B of acetonitrile with 0.05% formic acid at 8 min, and return to 30% mobile phase A at 13 min.

[4] = target: T1, ERα LBD (Homo sapiens, UniProt P03372); experiment: MARCoNI ERα-coregulator interaction peptide microarray; format: biochemical; conditions: 10 μM compound, 7 nM GST-tagged ERα LBD, vs apo
T1 construct: using 7 nM GST-tagged ERα LBD (Invitrogen); purchased Invitrogen
T1 sequence (P03372 311-547 limits assumed): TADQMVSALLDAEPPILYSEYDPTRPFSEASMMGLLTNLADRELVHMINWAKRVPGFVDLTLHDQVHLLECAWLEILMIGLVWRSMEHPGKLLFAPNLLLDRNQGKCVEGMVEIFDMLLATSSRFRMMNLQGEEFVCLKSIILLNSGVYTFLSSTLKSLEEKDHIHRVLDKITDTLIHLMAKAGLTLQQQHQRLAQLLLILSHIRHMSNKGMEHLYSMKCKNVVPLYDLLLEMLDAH
Experimental: The modulation of ERα-coregulator interaction by compound was analyzed using MARCoNI (Micro Array Assay for Real-time Coregulator Nuclear receptor Interaction) as described previously using 7 nM GST-tagged ERα LBD (Invitrogen).
Each condition is measured using 3 technical replicates (arrays). After incubation, unbound receptor is removed by washing, and a tiff image of each array is acquired using a CCD camera and receptor binding to each peptide on the array is quantified using dedicated software. For each condition, the three technical replicates are used to calculate mean and S.E.M. ERα binding as well as compound-induced log-fold modulation vs. control for each individual motif. Significance of the modulation is assessed using Student's t-Test.

[5] = system: T47D/Y537S breast cancer cells; experiment: T47D/Y537S ESR1 mutant cell growth inhibition; format: cell-based; conditions: Homo sapiens, 120 h, 5 days treatment
Excerpt: Wild-type ESR1, the Y537S ESR1 mutant were fused to a FLAG tag at their C-termini and cloned into the lentiviral vector pFLRu-FH [30]. Y537S mutation was first introduced into ESR1 using the QuikChange II XL Site-Directed Mutagenesis Kit (Agilent) with an ESR1-encoding plasmid (Accession number NM_000125.1, GeneCopoeia Inc.) as the template. […] To make lentiviral particles, pFLRu-FH vector DNAs (encoding ESR1(wt) and ESR1(Y537S)) were cotransfected with the packaging plasmids into HEK293T cells using Fugene 6 (Roche). At 48 hours post transfection, culture media containing different viruses were added to T47D cells in the presence of polybrene followed by 3-day puromycin selection for stable expression.
Viable cell numbers were counted with a Z Series Coulter Counter instrument (Beckman-Coulter) following manufacturer's instructions. […] IC50 values were obtained from dose-response curves for all treatments.

[6] = system: ERα; set-up: method as in PMID 27529700; conditions: read-out: binding affinity to ERα, EC50; cited from earlier work

pIC50 [1]: 8.82
concentration at 3 weeks ([3]; plasma, subcutaneous, 200 mg/kg/wk, read-out: Average concentration in final plasma): 27.9 ng/mL
concentration at 3 weeks ([3]; plasma, treatment ZB716 10 mg/kg daily PO, end of study, read-out: Average concentration in final plasma): 18.4 ng/mL
concentration at 3 weeks ([3]; plasma, treatment ZB716 30 mg/kg daily PO, end of study, read-out: Average concentration in final plasma): 145 ng/mL
concentration at 3 weeks ([3]; tumor tissue, subcutaneous, 200 mg/kg/wk, read-out: Average concentration in tumor tissue): 160 ng/mL
concentration at 3 weeks ([3]; tumor tissue, treatment ZB716 10 mg/kg daily PO, end of study, read-out: Average concentration in tumor tissue): 67.9 ng/mL
concentration at 3 weeks ([3]; tumor tissue, treatment ZB716 30 mg/kg daily PO, end of study, read-out: Average concentration in tumor tissue): 118 ng/mL
modulation of ERα interaction with coactivator motifs (NCOA family) [4]: strongly reduced
pIC50 [5]: 7.49
Compound: C[C@]12CC[C@@H]3c4ccc(O)cc4C[C@@H](CCCCCCCCC[S+]([O-])CCCC(F)(F)C(F)(F)F)[C@H]3[C@@H]1CC[C@@H]2O (some centres unmarked) [fulvestrant, reference compound]
share of total active ingredients in mice plasma (active metabolite of ZB716) [2]: 10-20%
